Entries after “also recorded” stand apart in the source; their conditions may differ.
Assays:
[1] = biological target: T1, MAO-A (Homo sapiens, UniProt P21397); experiment: MAO-Glo luminescent assay, MAO-A inhibition; type: biochemical
T1 construct: purchased
T1 sequence (P21397 1-527): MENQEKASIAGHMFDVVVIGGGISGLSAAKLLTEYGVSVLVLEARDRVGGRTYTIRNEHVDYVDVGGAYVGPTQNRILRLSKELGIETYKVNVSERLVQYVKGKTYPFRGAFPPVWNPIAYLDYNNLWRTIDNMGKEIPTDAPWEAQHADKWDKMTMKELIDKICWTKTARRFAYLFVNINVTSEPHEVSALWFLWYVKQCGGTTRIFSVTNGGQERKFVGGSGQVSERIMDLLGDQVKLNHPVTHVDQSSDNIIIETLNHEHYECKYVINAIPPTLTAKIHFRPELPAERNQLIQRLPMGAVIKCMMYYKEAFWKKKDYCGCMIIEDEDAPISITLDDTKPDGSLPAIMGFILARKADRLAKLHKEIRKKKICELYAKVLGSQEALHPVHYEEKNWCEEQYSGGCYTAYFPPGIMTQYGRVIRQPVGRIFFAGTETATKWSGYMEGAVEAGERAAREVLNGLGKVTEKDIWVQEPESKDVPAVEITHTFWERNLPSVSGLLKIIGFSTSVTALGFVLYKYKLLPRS
Text: (§1) This example describes experiments for determining monoamine oxidase (MAO) inhibition for isomyosmine and other alkaloids. MAOs are enzymes located on the outer membrane of mitochondria and are involved in the catabolism of monoamine neurotransmitters. There are two well-characterized isoenzymes: MAO-A, which predominantly catabolizes serotonin and norepinephrine, and MAO-B, which preferentially catabolizes benzylamine and phenylethylamine. Dopamine and tyramine are metabolized by both isoforms.
(§2) To detect the activity of MAO, a luminescent method (MAO-Glo Assay kit, from Promega, Cat #V1401) was used. In this method, a MAO substrate (a derivative of beetle luciferin provided in the kit) is mixed with the compound to be tested (in this case, myosmine and control compounds). Then, the MAO enzymes (either A or B, purchased separately) are added to the mixture and incubated with the reaction for 1 hour at room temperature. The MAO enzymes, if not inhibited by the test compound, will convert the substrate into methyl ester luciferin. Finally, a luciferin detection reagent (provided by the kit) is added (20 minutes at room temperature) to stop the MAO reaction and convert methyl ester luciferin into D-luciferin. […] The luminescent signal is measured and recorded using a luminometer. […]

[2] = biological target: T2, MAO-B (Homo sapiens, UniProt P27338); experiment: MAO-Glo luminescent assay, MAO-B inhibition; type: biochemical; settings: 1 hour at room temperature, compared among five alkaloids
T2 sequence (P27338 1-520): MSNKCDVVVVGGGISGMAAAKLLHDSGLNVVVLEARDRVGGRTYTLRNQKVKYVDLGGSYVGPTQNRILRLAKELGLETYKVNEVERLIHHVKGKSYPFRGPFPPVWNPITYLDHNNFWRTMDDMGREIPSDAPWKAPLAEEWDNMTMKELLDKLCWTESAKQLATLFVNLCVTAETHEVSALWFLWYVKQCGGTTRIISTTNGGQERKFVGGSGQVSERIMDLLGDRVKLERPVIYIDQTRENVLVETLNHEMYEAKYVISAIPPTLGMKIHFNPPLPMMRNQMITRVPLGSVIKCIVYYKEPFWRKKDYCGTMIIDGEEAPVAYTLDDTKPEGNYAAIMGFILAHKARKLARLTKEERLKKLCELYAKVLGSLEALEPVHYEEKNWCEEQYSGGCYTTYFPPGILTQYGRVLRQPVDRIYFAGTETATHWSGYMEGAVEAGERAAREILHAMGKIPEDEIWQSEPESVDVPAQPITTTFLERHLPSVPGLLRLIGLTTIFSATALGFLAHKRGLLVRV
Text: as §1, §2

[3] = Oxygen saturation in individuals after oral administration; type: in vivo; settings: fourteen individuals, one hour after oral administration, 100-300 mg depending on body weight
Text: Increasing oxygen saturation levels is believed to make isomyosmine particularly effective for treating substance addictions, including tobacco/nicotine addictions, as well as addictions to heroin, cocaine, opioids, methadone, d-methamphetamine, barbiturates, alcohol, benzodiazepines, amphetamines, or buprenorphine. For example, substances such as cocaine are known to cause blood vessels to constrict, resulting in increased heartrate and blood pressure and increased stress on the heart's ability to circulate blood and oxygen through the body. Increasing oxygen saturation levels may, among other things, counteract these types of effects associated with substance abuse by increasing blood oxygen levels, aiding in the treatment of the underlying addiction.

[4] = tested on: MPTP-induced toxicity; settings: mice, cited from earlier work; for dopamine levels: MPTP
[5] = biological target: T1, MAO-A; settings: cited from earlier work
[6] = biological target: T2, MAO-B; settings: cited from earlier work

| SMILES | dopamine levels [4] | decrease in dopamine metabolite levels induced by MPTP [4] | MAO inhibitory effects against MAO-A [5] | MAO inhibitory effects against MAO-B [6] | other results |
| --- | --- | --- | --- | --- | --- |
| C1=NC(c2cccnc2)CC1 (stereo not drawn) [isomyosmine, 3-(3,4-dihydro-2H-pyrrol-2-yl)-pyridine] |  |  |  |  | inhibition at 2000 µM ([1]; 2 mM concentration (2,000 micromolar)): ~50%; inhibition of the enzymatic activity of MAO-A (in words, curve position in FIG. 1) ([1]; 1 hour at room temperature, compared among five alkaloids): most potent of the five; also recorded: potent inhibitor; inhibition of the activity of MAO-B (in words, FIG. 2) [2]: potent inhibitor; inhibition of the activity of MAO-B (in words, FIG. 2) ([2]; listed as Isomyosmine): most potent among the five alkaloids tested; oxygen saturation (%) [3]: dramatically increase |
| c1ccc(-c2ccncc2)cc1 [4-phenylpyridine] | no significant effect | prevented the decrease |  |  |  |
| C1=CCC(c2cccnc2)NC1 (stereo not drawn) [anatabine] |  |  | exhibited MAO inhibitory effects | exhibited MAO inhibitory effects |  |
| c1cncc([C@@H]2CCCCN2)c1 [anabasine] |  |  | exhibited MAO inhibitory effects | exhibited MAO inhibitory effects |  |
| c1cncc([C@@H]2CCCN2)c1 [nornicotine] |  |  | exhibited MAO inhibitory effects | exhibited MAO inhibitory effects |  |
| CN1CCCC1c1cccnc1 (stereo not drawn) [nicotine] | no significant effect | prevented the decrease |  |  |  |
